{"source": "paper PMC11758220", "about": "“Identification of a Privileged Scaffold for Inhibition of Sterol Transport Proteins through the Synthesis and Ring Distortion of Diverse, Pseudo-Natural Products” (ACS Central Science, 2025)", "assay_type_in_all_cases": "binding", "settings_in_all_cases": "single dose, Dose = 10 µM", "key": {"STARD3": {"target": "T1, STARD3 (Homo sapiens, UniProt Q14849)", "T1 construct": "STARD3(216-444); made in house; host or cells: E. coli BL21(DE3)", "T1 sequence (Q14849 216-444)": "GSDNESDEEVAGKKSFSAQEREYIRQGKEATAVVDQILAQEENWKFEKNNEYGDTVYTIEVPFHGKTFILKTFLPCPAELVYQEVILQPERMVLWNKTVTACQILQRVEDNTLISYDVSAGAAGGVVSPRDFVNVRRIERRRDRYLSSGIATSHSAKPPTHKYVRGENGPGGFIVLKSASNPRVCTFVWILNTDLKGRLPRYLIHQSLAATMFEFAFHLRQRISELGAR", "test": "Differential scanning fluorimetry (DSF), STARD3", "from_the_text": "(§1) Protein expression constructs\n(§2) Human ASTER domains of Aster-A(359-547), -B(364-552) and -C(318-504) were subcloned into a pGEX-6p-2rbs vector, thus introducing the cloning artifact ‘GPLGS’.3 The pGEX-6P-1-GST-OSBP(377- […]\n(§3) a gift from James H. Hurley (University of California).4 The pHIS_2His6_Thrombin_STARD4(2-205;C75S) plasmid was a gift from Young Jun Im (Chonnam National University).5 STARD5A was a gift from Nicola Burgess-Brown (Addgene plasmid #42392; http://n2t.net/addgene:42392; […]\n(§4) Protein expression and purification […]\n(§5) vectors including an N-terminal PreScission-cleavable glutathione S-transferase (GST)-tag were expressed in Escherichia coli (E. coli) OverExpress C41 in Terrific Broth (TB) medium for 16 h at 18 °C after the induction with 0.1 mM isopropyl β-D-1-thiogalactopyranoside (IPTG). Cells were harvested at 3500 × g for 15 minutes and lysed by sonication in buffer containing 50 mM HEPES pH 7.5, 300 mM NaCl, 10 %v/v glycerol, 5 mM dithiothreitol (DTT), 0.1 %v/v Triton X-100 and protease inhibitor mix HP plus (Serva). The lysate was purified by affinity chromatography on a GSTrap FF column (Cytiva) using an ÄKTA Start (Cytiva) in buffer containing 50 mM HEPES pH 7.5, 300 mM NaCl, 10 %v/v glycerol, 5 mM DTT and 0.01 %v/v Triton X-100. The GST-tag was cleaved overnight on the column at 4 °C. The Aster sterol binding domains were further purified by size-exclusion chromatography (SEC) on a HiLoad 16/600 Superdex 75 pg (Cytiva) in buffer containing 20 mM HEPES pH 7.5, 300 mM NaCl, 10 %v/v […]\n(§6) STARD5(6-213) harboring an N-terminal His6-Tag were expressed in E. coli BL21(DE3) in Luria-Bertani Broth (LB) medium for approximately 16 h at 18 °C after induction with 0.15 mM IPTG. Cells were harvested at 3500 × g for 15 minutes and lysed by sonication in buffer containing 50 mM HEPES pH 7.5, 150 mM NaCl, 5 %v/v glycerol, 5 mM DTT, 0.1 %v/v Triton X -100 and ethylenediaminetetraacetic acid (EDTA)-free protease inhibitor cocktail (Sigma-Aldrich). The cleared lysate was purified by affinity chromatography on a Ni-NTA Superflow Cartridge (Qiagen) using an ÄKTA Start (Cytiva) in buffer containing 50 mM HEPES pH 7.5, 150 mM NaCl, 5 %v/v glycerol, 5 mM DTT. START domains were eluted by using elution buffer containing 50 mM HEPES pH 7.5, 150 mM NaCl, 5 %v/v glycerol, 5 mM DTT and 500 mM imidazole. Proteins were further purified by SEC on a HiLoad 16/600 Superdex 75 pg (Cytiva) in buffer containing 20 mM HEPES pH 7.5, 150 mM NaCl, 5 %v/v glycerol and 2 mM DTT.\n(§7) The ORP domain of human OSBP(377-807) in the pGEX-6p-1 vector with an N-terminal PreScission-cleavable GST-tag was expressed in E. coli OverExpress C41 in LB medium for 16 h at 18 °C after induction with 0.1 mM IPTG. Cells were harvested at 3500 × g for 15 minutes and lysed by sonication in buffer containing 20 mM HEPES pH 7.5, 300 mM NaCl, 10 %v/v glycerol, 5 mM DTT, 0.1 %v/v Triton X-100 and EDTA-free protease inhibitor cocktail (Sigma-Aldrich). The cleared lysate was purified by affinity chromatography on a GSTrap HF column (Cytiva) using an ÄKTA Start (Cytiva) in buffer containing 20 mM HEPES pH 7.5, 300 mM NaCl, 10 %v/v glycerol, 5 mM DTT. OSBP(377 -807) was eluted by using elution buffer containing 20 mM HEPES pH 7.5, 300 mM NaCl, 10 %v/v glycerol, 5 mM DTT and 10 mM reduced glutathione. Proteins were further purified by SEC on a HiLoad 16/600 Superdex 75 pg (Cytiva) using an ÄKTA Explorer (Cytiva) in buffer containing 20 mM HEPES pH 7.5, 150 mM NaCl, 10 %v/v glycerol and 2 mM DTT.\n(§8) The ORP domains of human ORP1(534-950) in pET24b(+) and ORP2(49-480) in the pET24b(+) vector including an N-terminal His6-Tag were expressed in E. coli BL21(DE3) in TB medium for approximately 16 h at 18 °C after induction with 0.1 mM IPTG. Cells were collected at 3500 × g for 15 minutes and lysed by sonification in buffer containing 10 mM Tris-HCl pH 8, 300 mM NaCl, 5 % glycerol, 2 mM DTT, 0.1 % Triton X-100 and EDTA-free protease inhibitor cocktail (Sigma-Aldrich). The cleared […]"}, "STARD4": {"target": "T2, STARD4 (Homo sapiens, UniProt Q96DR4, C75S)", "T2 construct": "STARD4(2-205; C75S); made in house; host or cells: E. coli BL21(DE3)", "T2 sequence (Q96DR4 2-205 C75S)": "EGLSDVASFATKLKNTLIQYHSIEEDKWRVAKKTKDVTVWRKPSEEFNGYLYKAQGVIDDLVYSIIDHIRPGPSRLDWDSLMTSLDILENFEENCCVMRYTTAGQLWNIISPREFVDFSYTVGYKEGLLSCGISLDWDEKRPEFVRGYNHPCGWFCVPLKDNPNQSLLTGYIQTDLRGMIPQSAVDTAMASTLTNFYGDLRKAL", "test": "Differential scanning fluorimetry (DSF), STARD4", "from_the_text": "as §1, §2, §3, §4, §5, §6, §7, §8"}, "STARD5": {"target": "T3, STARD5 (Homo sapiens, UniProt Q9NSY2)", "T3 construct": "STARD5(6-213); host or cells: E. coli BL21(DE3)", "T3 sequence (Q9NSY2 6-213)": "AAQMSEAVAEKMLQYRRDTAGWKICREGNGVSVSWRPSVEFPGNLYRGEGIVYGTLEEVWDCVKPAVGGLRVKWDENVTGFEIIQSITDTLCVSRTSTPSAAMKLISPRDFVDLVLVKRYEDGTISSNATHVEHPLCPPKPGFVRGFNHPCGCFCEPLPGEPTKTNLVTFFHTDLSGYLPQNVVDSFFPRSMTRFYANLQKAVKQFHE", "test": "Differential scanning fluorimetry (DSF), STARD5", "from_the_text": "as §1, §2, §3, §4, §5, §6, §7, §8"}}, "data": [{"smiles": "Cc1ccc2c(c1)C(=O)[C@]1(CC[C@@H]3C[C@H](O)CC[C@@]31C)N2", "note": "[Compound 13]", "values": [{"measurement": "ΔTm at 10 µM", "setting": "STARD3", "result": -0.0638, "unit": "°C"}, {"measurement": "ΔTm at 10 µM", "setting": "STARD4", "result": 1.1, "unit": "°C"}, {"measurement": "ΔTm at 10 µM", "setting": "STARD5", "result": 0.143, "unit": "°C"}]}]}
